Read-outs that look alike come from different tables or passages of the source.
Key:
Type in all cases: binding, mouse
[1] = system: monoclonal antibody MA-7 (FERM BP-1494); experiment: Assay test II: competitive ELISA on immobilised MA-BSA, reactivities of the monoclonal antibody with various compounds
Description: (§1) First, in each analytic well of a 96-well U-bottomed ELISA plate was apportioned each 50 µl of an MA-BSA solution (2 µg/ml, dissolved in 0.05 M carbonate buffer of pH 9.8) which is the antigen for analysis prepared in Example 1, and the mixture was left to stand overnight at 4 °C (by such treatment, MA-BSA was adsorbed onto the surface of each analytic well).
(§2) Subsequently, after each analytic well was washed with a washing solution (PBS containing 0.05 % of Tween 20), each apportioned in each analytic well, left to stand at room temperature for 2 hours, these respective analytic wells were washed with the washing solution, and the culture supernatant in each culture well of the above culture plate was apportioned each in 50 µl into these respective analytic wells and left to stand at room temperature for 2 hours (for the negative control, a supernatant obtained by culturing similarly a mixture of mouse spleen lymphocytes and mouse myeloma cells before fusion was employed; on the other hand, for the positive control, the serum of mouse used for cell fusion in the present invention diluted to 100-fold with the washing liquor was used).
(§3) Next, each analytic well in the ELISA plate was washed, and each 50 µl of an alkaline phosphatase labeled antibody solution to mouse immunoglobulin was apportioned into each analytic well and left to stand at room temperature for 1 hour. And, after each analytic well in the ELISA plate was washed, each 100 µl of a sodium p-nitrophenylphosphate 6H₂O solution (1 mg/ml) was apportioned into each analytic well and, after the reaction at room temperature for 30 minutes, absorbance of each well at 405 nm was assayed by means of a spectrophotometer for microplate.
(§4) In order to determine the reaction specificities of the monoclonal antibodies such as MA-7, MA-13 and MA-15, reactivities with compounds different from MA such as AP (amphetamine), EP (ephedrin), ME (methylephedrin), MPA (methoxyphenamine), PT (phentermine), norEp (norephedrin), DBED (N,N′-dibenzylethylenediamine), OH-MA (p-hydroxymethamphetamine), OH-AP (p-hydroxyamphetamine), OH-EP (p-hydr oxyephedrin), OH-norEP (p-hydroxynorephedrin), Mes (mescaline), etc. were investigated according to the same ELISA method as described above in the step (c) (however, the reagent used for assay was made two-fold in amount, and a mixed solution of 50 µl of a solution of a compound diluted at multiple stages with the washing liquor and 50 µl of a monoclonal antibody solution was used in place of the hybridoma culture supernatant).
(§5) The reactivities of these antibodies with MA, AP, EP, ME, MPA, PT, norEp, DBED, OH-MA, OH-AP, OH-EP, OH-norEP and Mes are shown in Table 1 in terms of the reactive ratios relative to MA.

[2] = system: monoclonal antibody MA-15 (FERM BP-1496); experiment: as above
Description: as §1, §2, §3, §4, §5

[3] = system: monoclonal antibody MA-13 (FERM BP-1495); experiment: as above
Description: as §1, §2, §3, §4, §5

[4] = system: "enzyme-labeled antibody" (peroxidase-labeled monoclonal antibody MA-15); experiment: Reactivity of MA analogous compounds in the competitive enzyme immunoassay with MA bound protein and enzyme-labeled antibody (Example 15)
Description: The antibody in the "enzyme-labeled antibody" was obtained as the purified monoclonal antibody as shown in Reference example 2 by use of the MA-15 strain (FERM-P 1496).
First, […] of horseradish peroxidase was dissolved in 1 ml of distilled water and 200 µl of 0.1 M sodium periodate was added, followed by standing at room temperature for 30 minutes. After the enzyme solution was dialyzed at 4 °C overnight against 1 mM acetate buffer (pH 4.5), 100 µl of 0.2 M sodium carbonate buffer (pH 9.5) was added to adjust pH to 9.5. On the other hand, 8 mg of the monoclonal antibody (MA-15) dissolved in PBS was dialyzed at 4 °C overnight against 0.01 M sodium carbonate buffer (pH 9.5). The peroxidase and the monoclonal antibody thus obtained was mixed, left to stand at room temperature for 2 hours and a half, and sodium borohydride was added to the reaction mixture, followed by standing at 4 °C for 2 hours. The peroxidase-labeled monoclonal antibody thus obtained was dialyzed at 4 °C overnight against PBS, and this was diluted to 100-fold with PBS containing 0.01 % sodium ethylmercurithiosalicylate, apportioned each in 0.2 ml into a bottle and stored under lyophilization to provide the "enzyme-labeled antibody" (10 µg/bottle) which is the assay kit of MA. During assay of MA, 0.2 ml of distilled water was added into the bottle to dissolve well the lyophilized powder, and the solution was suitable diluted with PBS before use.
The MA-BSA which is the "MA bound protein" (bound product of MA and BSA, 5 µg/ml) was apportioned each in 100 µl into a 96-well flat-bottomed plate for immunoassay which is the solid phase support (microplate made of polystyrene produced by Nunc Co.), and left to stand under 4 °C overnight to immobilize MA-BSA onto each well. Next, for preventing non-specific adsorption of the "enzyme-labeled antibody" onto the plate, a washing solution containing 10 % calf serum (phosphate buffer of pH 7.4 containing 0.05 % of Tween 20) was placed and left to stand under room temperature for 30 minutes. Next, after washing with the same washing solution, 50 µl of the standard MA solution prepared by using the diluted urine of healthy man (produced by HYLAND DIAGNOSTIC CO.) to 5-fold with the same washing solution [(0 to 150 ng)/50 µl] and 50 µl of the "enzyme-labeled antibody" prepared in Example 1 were added at the same time into each well, followed by mixing and standing under room temperature for 30 minutes. […] Finally, each 50 µl of 2N sulfuric acid was apportioned to stop the enzymatic reaction, and absorbance of the solution after stopping of the reaction at 492 nm was assayed by use of a microplate photometer. […]

[5] = system: "antibody carrier" (monoclonal antibody to MA on polystyrene latex); experiment: Latex agglutination assay with MA carrier and antibody carrier, time until agglutination is seen with naked eyes; conditions: same as at 0 ppm
Description: Each solution was quickly stirred with a stirring stick to carry out the reaction while moving the reaction plate, forward and backward, left and right, at a constant temperature (e.g. room temperature) for a certain period of time (e.g. 1 to 2 minutes), and the agglutination of each set formed by the reaction between the "antibody carrier" and the "MA carrier" is observed. At this time, by observing with comparison between the agglutination in the case of the set by use of the "standard MA solution" and the agglutination in the case of the set by use of the sample to be assayed, the MA content in the sample to be assayed can be known.
A mixture of 100 µl of MA-BSA solution (400 µg/ml) with 100 µl of a polystyrene latex which is the carrier (solid components 4.0 % by weight, particle size 0.8 µm, solvent PBS was shaken at 37 °C for 3 hours to have the MA-BSA carried physically on the polystyrene latex surface to obtain the "MA carrier".
The "MA carrier" prepared in Example 18 and the "antibody carrier " prepared in Example 19 were added dropwise each in 25 µl separately from each other onto the three sheets of reaction plates, and on the same plates were further added each 5 µl of the samples to be assayed with MA concentrations of 0.5 ppm and 1.0 ppm prepared by dilution with urine of healthy man (produced by HYLAND DIAGNOSTIC CO.) separately from each other, followed immediately by mixing of the "MA carrier", the "antibody carrier" and the sample to be assayed with a stirring stick.
In Example 20, samples to be assayed were prepared by use of methylephedrine (ME) in place of MA and the assay was carried out, following otherwise the same procedure.
In Example 20, samples to be assayed were prepared by use of ephedrine (EP) in place of MA and the assay was carried out, following otherwise the same procedure.

[6] = monoclonal antibody MA-7, compound diluted at multiple stages, MA = 1
[7] = monoclonal antibody MA-15, compound diluted at multiple stages, MA = 1
[8] = monoclonal antibody MA-13, compound diluted at multiple stages, MA = 1
[9] = enzyme-labeled antibody, according to Example 6, MA = 100
[10] = concentration in sample 0.5 ppm
[11] = concentration in sample 1.0 ppm

SMILES | reactive ratios relative to MA [1, 6] | reactive ratios relative to MA [2, 7] | reactive ratios relative to MA [3, 8] | further results
CNC(C)C(O)c1ccc(O)cc1 (centres unmarked) [OH-EP, p-hydroxyephedrine] | <0.001 | 0.0031 | <0.001 | reactive ratios relative to MA ([1]; monoclonal antibody MA-7, compound diluted at multiple stages, MA = 1, listed as p-hydroxyephedrine): < 0.001; reactive ratios relative to MA ([3]; monoclonal antibody MA-13, compound diluted at multiple stages, MA = 1, listed as p-hydroxephedrine): < 0.001
CC([C@H](O)c1ccccc1)N(C)C (some centres unmarked) [ME, methylephedrin] | 0.022 | 0.016 | 0.028 | Reactivity (%) [4, 9]: 1.2%; time until particles of polystyrene latex were observed with naked eyes to be agglutinated [5, 10]: ≤ 30 s; time until particles of polystyrene latex were observed with naked eyes to be agglutinated [5, 11]: ≤ 30 s
CC(C)(N)Cc1ccccc1 [PT, phentermine] | 0.042 | 0.0039 | 0.12 | –
CC(N)C(O)c1ccc(O)cc1 (centres unmarked) [OH-norEP, p-hydroxynorephedrin] | <0.001 | <0.001 | <0.001 | reactive ratios relative to MA ([1]; monoclonal antibody MA-7, compound diluted at multiple stages, MA = 1, listed as p-hydroxynorephedrine): < 0.001; reactive ratios relative to MA ([2]; monoclonal antibody MA-15, compound diluted at multiple stages, MA = 1, listed as p-hydroxynorephedrine): < 0.001; reactive ratios relative to MA ([3]; monoclonal antibody MA-13, compound diluted at multiple stages, MA = 1, listed as p-hydroxynorephedrine): < 0.001
CN[C@@H](C)Cc1ccccc1 [MA, methamphetamine] | 1 | 1 | 1 | Reactivity (%) [4, 9]: 100%
CC(N)C(O)c1ccccc1 (centres unmarked) [norEP, norephedrin] | <0.001 | <0.001 | <0.001 | reactive ratios relative to MA ([1]; monoclonal antibody MA-7, compound diluted at multiple stages, MA = 1, listed as norephedrine): < 0.001; reactive ratios relative to MA ([2]; monoclonal antibody MA-15, compound diluted at multiple stages, MA = 1, listed as norephedrine): < 0.001; reactive ratios relative to MA ([3]; monoclonal antibody MA-13, compound diluted at multiple stages, MA = 1, listed as norephedrine): < 0.001
CC(N)Cc1ccc(O)cc1 (centres unmarked) [OH-AP, p-hydroxyamphetamine] | <0.001 | <0.001 | 0.003 | reactive ratios relative to MA ([1]; monoclonal antibody MA-7, compound diluted at multiple stages, MA = 1, listed as p-hydroxyamphetamine): < 0.001; reactive ratios relative to MA ([2]; monoclonal antibody MA-15, compound diluted at multiple stages, MA = 1, listed as p-hydroxyamphetamine): < 0.001
c1ccc(CNCCNCc2ccccc2)cc1 [DBED, N,N′-dibenzylethylenediamine] | 0.17 | 0.0055 | 0.23 | –
COc1cc(CCN)cc(OC)c1OC [Mes, mescaline] | – | – | – | reactive ratios relative to MA [1]: <0.00001; reactive ratios relative to MA [3]: <0.00001
CN[C@@H](C)[C@H](O)c1ccccc1 [EP, ephedrin] | 0.0018 | 0.0012 | 0.0025 | time until particles of polystyrene latex were observed with naked eyes to be agglutinated [5, 10]: ≤ 30 s; time until particles of polystyrene latex were observed with naked eyes to be agglutinated [5, 11]: ≤ 30 s
CNC(C)Cc1ccccc1OC (centres unmarked) [MPA, methoxyphenamine] | 0.023 | 0.0016 | 0.0037 | Reactivity (%) [4, 9]: <0.2%
CNC(C)Cc1ccc(O)cc1 (centres unmarked) [OH-MA, p-hydroxymethamphetamine] | 0.0039 | 0.014 | 0.14 | –
CC(N)Cc1ccccc1 (centres unmarked) [AP, amphetamine] | – | – | – | Reactivity (%) [4]: 1.8%; reactive ratios relative to MA [1]: 0.0051; reactive ratios relative to MA [2]: 0.019; reactive ratios relative to MA [3]: 0.0062
